Several values for one entry are separate records, joined by “and”; a condition that tells them apart may be missing. Identical values can stand only once. Inconclusive results and toxic doses are left out. Numbered stars: 1 amine (or outer) side, 2 acyl side, 3 side chain; on linkers, the order of the positions; unused ones are H or OH. Bridge positions count the residues as written; N and C are the ends. Square brackets hold non-standard residues; d marks the D form. Peptide text beside a SMILES is read from it. I, II: the chains in the order shown. ξ: configuration not given here. Actinocin(9to1) = Cc1c2oc3c(C)ccc(C(=O)[*:1])c3nc-2c(C(=O)[*:2])c(N)c1=O; ξPro(4ξ-Me) = CC1CNC(C(=O)O)C1; NMeV = CN[CH](C(=O)O)C(C)C; Sar = CNCC(=O)O
Tested on: BDF1 mice, B16 melanoma ip, median survival T/C
Experiment: NCI In Vivo Anticancer Drug Screen. Data for tumor model B16 Melanoma (intraperitoneal) in B6D2F1 (BDF1) mice
Settings: endpoint: median survival time, higher = longer survival
Method in brief: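 Each result divides a survival or tumor-size measurement in the compound-treated group by the same measurement in the vehicle group.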

[1] = dose: 100.0 mg/kg/injection, schedule: Q01DX009 (ip), vehicle: Klucel (hydroxypropylcellulose) (HPC)
[2] = dose: 200.0 mg/kg/injection, schedule: Q01DX009 (ip), vehicle: Klucel (hydroxypropylcellulose) (HPC)
[3] = dose: 400.0 mg/kg/injection, schedule: Q01DX009 (ip), vehicle: Klucel (hydroxypropylcellulose) (HPC)
[4] = dose: 50.0 mg/kg/injection, schedule: Q01DX009 (ip), vehicle: Klucel (hydroxypropylcellulose) (HPC)
[5] = dose: 6.25 mg/kg/injection, schedule: Q01DX009 (ip), vehicle: Klucel (hydroxypropylcellulose) (HPC)
[6] = dose: 12.5 mg/kg/injection, schedule: Q01DX009 (ip), vehicle: Klucel (hydroxypropylcellulose) (HPC)
[7] = dose: 25.0 mg/kg/injection, schedule: Q01DX009 (ip), vehicle: Klucel (hydroxypropylcellulose) (HPC)
[8] = dose: 50.0 mg/kg/injection, schedule: Q01DX009 (ip), vehicle: saline with Tween-80
[9] = dose: 100.0 mg/kg/injection, schedule: Q01DX009 (ip), vehicle: saline with Tween-80
[10] = dose: 25.0 mg/kg/injection, schedule: Q01DX009 (ip), vehicle: saline with Tween-80

For C[CH2][Pb]([CH2]C)([CH2]C)[O]C(=O)c1ccc(N)cc1, the T/C (dose: 0.75 mg/kg/injection, schedule: Q01DX009 (ip), vehicle: Klucel (hydroxypropylcellulose) (HPC)) was 111 % of control, the T/C (dose: 1.5 mg/kg/injection, schedule: Q01DX009 (ip), vehicle: Klucel (hydroxypropylcellulose) (HPC)) was 111 % of control and the T/C (dose: 3.0 mg/kg/injection, schedule: Q01DX009 (ip), vehicle: Klucel (hydroxypropylcellulose) (HPC)) was 108 % of control. For the same compound, the T/C (dose: 6.0 mg/kg/injection, schedule: Q01DX009 (ip), vehicle: Klucel (hydroxypropylcellulose) (HPC)) was 111 % of control and the T/C (dose: 12.0 mg/kg/injection, schedule: Q01DX009 (ip), vehicle: Klucel (hydroxypropylcellulose) (HPC)) was 105 % of control.

C=CCC(C(C)=O)C(=O)OCC (centres undefined) was tested, and the T/C [1] was 106 % of control, the T/C [2] was 110 % of control and the T/C [3] was 110 % of control.

In the case of C=CCCOC(C)=O, the T/C [4] was 100 % of control, the T/C [1] was 108 % of control and the T/C [2] was 108 % of control.

With CCCCNC(C)C1(O)Cc2c(O)c3c(c(O)c2C(OC2CC(N)C(O)C(C)O2)C1)C(=O)c1c(OC)cccc1C3=O (centres undefined) the T/C (dose: 50.0 mg/kg/injection, schedule: Q01DX001 (ip), vehicle: water) was 114 % of control and 181 % of control and 204 % of control, the T/C (dose: 100.0 mg/kg/injection, schedule: Q01DX001 (ip), vehicle: water) was 114 % of control and 263 % of control and 292 % of control and the T/C (dose: 200.0 mg/kg/injection, schedule: Q01DX001 (ip), vehicle: water) was 117 % of control and 217 % of control and 293 % of control. The T/C (dose: 400.0 mg/kg/injection, schedule: Q01DX001 (ip), vehicle: water) was 89 % of control.

With O=C(NNc1ccccc1)c1ccccc1 the T/C [5] was 97 % of control, the T/C [6] was 97 % of control and the T/C [7] was 93 % of control. For the same compound, the T/C [4] was 91 % of control.

With CC(O)(C(=O)O)c1ccccc1 (centres undefined) (tested in a mixture with another compound) the T/C [1] was 94 % of control, the T/C [2] was 105 % of control and the T/C [3] was 97 % of control.

In the case of COc1ccc2cc3[n+](cc2c1OC)CCc1cc2c(cc1-3)OCO2, the T/C (dose: 1.5 mg/kg/injection, schedule: Q01DX009 (ip), vehicle: carboxymethylcellulose (CMC)) was 105 % of control, the T/C (dose: 2.5 mg/kg/injection, schedule: Q01DX009 (ip), vehicle: Klucel (hydroxypropylcellulose) (HPC)) was 106 % of control and the T/C (dose: 2.5 mg/kg/injection, schedule: Q01DX009 (ip), vehicle: saline with Tween-80) was 100 % of control. The T/C (dose: 2.5 mg/kg/injection, schedule: Q02DX005 (ip), vehicle: Klucel (hydroxypropylcellulose) (HPC)) was 109 % of control, the T/C (dose: 3.0 mg/kg/injection, schedule: Q01DX009 (ip), vehicle: carboxymethylcellulose (CMC)) was 96 % of control and the T/C (dose: 3.12 mg/kg/injection, schedule: Q01DX009 (ip), vehicle: carboxymethylcellulose (CMC)) was 95 % of control. For the same compound, the T/C (dose: 5.0 mg/kg/injection, schedule: Q01DX009 (ip), vehicle: Klucel (hydroxypropylcellulose) (HPC)) was 108 % of control, the T/C (dose: 5.0 mg/kg/injection, schedule: Q01DX009 (ip), vehicle: saline with Tween-80) was 110 % of control and the T/C (dose: 5.0 mg/kg/injection, schedule: Q02DX005 (ip), vehicle: Klucel (hydroxypropylcellulose) (HPC)) was 110 % of control. For the same compound, the T/C [5] was 105 % of control, the T/C (dose: 10.0 mg/kg/injection, schedule: Q01DX009 (ip), vehicle: saline with Tween-80) was 102 % of control and the T/C (dose: 10.0 mg/kg/injection, schedule: Q02DX005 (ip), vehicle: Klucel (hydroxypropylcellulose) (HPC)) was 100 % of control. The T/C [6] was 106 % of control.

For CCN(CC)CCSC(=O)C(O)(c1ccccc1)C1CCCC1 (centres undefined), the T/C (dose: 25.0 mg/kg/injection, schedule: Q01DX009 (ip), vehicle: saline) was 124 % of control.

For ClCCN(CCCl)c1ccc(/C=C/c2ccccc2)cc1, the T/C [5] was 98 % of control, the T/C [6] was 96 % of control and the T/C [7] was 96 % of control. The T/C [4] was 90 % of control and the T/C [1] was 101 % of control.

For OC1COC(c2ccco2)OC1 (centres undefined) (tested in a mixture with another compound), the T/C [4] was 100 % of control, the T/C [1] was 100 % of control and the T/C [2] was 106 % of control.

CCCCC(SC(CC)(C(C)=O)c1ccccc1)C(N)=O (centres undefined) was tested, and the T/C [8] was 89 % of control, the T/C [9] was 108 % of control and the T/C (dose: 200.0 mg/kg/injection, schedule: Q01DX009 (ip), vehicle: saline with Tween-80) was 87 % of control. For the same compound, the T/C (dose: 400.0 mg/kg/injection, schedule: Q01DX009 (ip), vehicle: saline with Tween-80) was 92 % of control.

For Cc1ccc(NC(=O)c2ccc([N+](=O)[O-])cc2)cc1Cl, the T/C [7] was 109 % of control, the T/C [4] was 99 % of control and the T/C [1] was 99 % of control.

In the case of CCCCCCCCOC(=O)Nc1ccc(OCC)cc1, the T/C (dose: 1.5 mg/kg/injection, schedule: Q01DX009 (ip), vehicle: saline with Tween-80) was 107 % of control, the T/C (dose: 3.0 mg/kg/injection, schedule: Q01DX009 (ip), vehicle: saline with Tween-80) was 96 % of control and the T/C (dose: 6.0 mg/kg/injection, schedule: Q01DX009 (ip), vehicle: saline with Tween-80) was 96 % of control.

In the case of CN(C)N=Nc1cn[nH]c1C(N)=O, the T/C [6] was 110 % of control, the T/C [7] was 111 % of control and the T/C [4] was 100 % of control. The T/C [1] was 98 % of control and the T/C [2] was 96 % of control.

COC1CC(C)C(OC)C2=CC(=O)C=C(NC(=O)/C(C)=C/C=C\C(C)C(OC(N)=O)/C(C)=C\C(C)C1OC)C2=O (centres undefined) was tested, and the T/C (dose: 5.0 mg/kg/injection, schedule: Q01DX009 (ip), vehicle: saline + alcohol) was 152 % of control and the T/C (dose: 10.0 mg/kg/injection, schedule: Q01DX009 (ip), vehicle: saline + alcohol) was 172 % of control.

In the case of CC(=O)C1=C(C)NC(C)=C(C(C)=O)C1c1cccc([N+](=O)[O-])c1, the T/C [10] was 94 % of control, the T/C [8] was 94 % of control and the T/C [9] was 97 % of control.

For Clc1ccc2c(Cl)ncnc2c1, the T/C [6] was 100 % of control, the T/C [7] was 100 % of control and the T/C [4] was 102 % of control. For the same compound, the T/C [1] was 100 % of control and the T/C [2] was 90 % of control.

CCCCNC(=O)Oc1ccc(C(=O)OCC)cc1 was tested, and the T/C [10] was 96 % of control, the T/C [8] was 98 % of control and the T/C [9] was 95 % of control.

With Cc1c2oc3c(C)ccc(C(=O)NC4C(=O)NC(C(C)C)C(=O)N5CC(C)CC5C(=O)N(C)CC(=O)N(C)C(C(C)C)C(=O)OC4C)c3nc-2c(C(=O)NC2C(=O)NC(C(C)C)C(=O)N3CC(C)CC3C(=O)N(C)CC(=O)N(C)C(C(C)C)C(=O)OC2C)c(N)c1=O (centres undefined) (I: TV[ξPro(4ξ-Me)][Sar][NMeV] / II: TV[ξPro(4ξ-Me)][Sar][NMeV]; ester I:1-I:C, II:1-II:C; linker I:N-II:N via Actinocin(9to1); configuration not given here) the T/C (dose: 3.24 mg/kg/injection, schedule: Q04DX003 (ip), vehicle: saline + alcohol) was 163 % of control, the T/C (dose: 3.6 mg/kg/injection, schedule: Q04DX003 (ip), vehicle: saline + alcohol) was 123 % of control and the T/C (dose: 5.4 mg/kg/injection, schedule: Q04DX003 (ip), vehicle: saline + alcohol) was 153 % of control. The T/C (dose: 9.0 mg/kg/injection, schedule: Q04DX003 (ip), vehicle: saline + alcohol) was 207 % of control, the T/C (dose: 15.0 mg/kg/injection, schedule: Q04DX003 (ip), vehicle: saline + alcohol) was 188 % of control and the T/C (dose: 259.0 micrograms/kg/injection, schedule: Q01DX009 (ip), vehicle: saline + alcohol) was 114 % of control. The T/C (dose: 432.0 micrograms/kg/injection, schedule: Q01DX009 (ip), vehicle: saline + alcohol) was 122 % of control, the T/C (dose: 720.0 micrograms/kg/injection, schedule: Q01DX009 (ip), vehicle: saline + alcohol) was 118 % of control and the T/C (dose: 1200.0 micrograms/kg/injection, schedule: Q01DX009 (ip), vehicle: saline + alcohol) was 123 % of control.

With O=C(CCl)N1c2ccccc2Sc2ccc(Cl)cc21 the T/C (dose: 6.25 mg/kg/injection, schedule: Q01DX009 (ip), vehicle: other) was 107 % of control, the T/C (dose: 12.5 mg/kg/injection, schedule: Q01DX009 (ip), vehicle: other) was 100 % of control and the T/C (dose: 25.0 mg/kg/injection, schedule: Q01DX009 (ip), vehicle: other) was 100 % of control. The T/C (dose: 50.0 mg/kg/injection, schedule: Q01DX009 (ip), vehicle: other) was 94 % of control and the T/C (dose: 100.0 mg/kg/injection, schedule: Q01DX009 (ip), vehicle: other) was 87 % of control.

With O=[N+]([O-])/C=C/C(Cl)(Cl)Cl the T/C [5] was 100 % of control and the T/C [6] was 96 % of control.

With CC1(C)N=C(N)N=C(N)N1c1ccc(Cl)cc1Cl the T/C [6] was 108 % of control, the T/C [7] was 111 % of control and the T/C [4] was 123 % of control.

For CC(=O)OC1C2CCC(C2)C1C (centres undefined), the T/C (dose: 100.0 mg/kg/injection, schedule: Q04DX003 (ip), vehicle: saline with Tween-80) was 105 % of control, the T/C (dose: 200.0 mg/kg/injection, schedule: Q04DX003 (ip), vehicle: saline with Tween-80) was 100 % of control and the T/C (dose: 400.0 mg/kg/injection, schedule: Q04DX003 (ip), vehicle: saline with Tween-80) was 97 % of control.
